Ten compounds from ChEMBL document CHEMBL1201862, “PubChem BioAssay data set” (2004) can be followed below.

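48-hour exposure; five concentrations; linearly interpolated endpoints. GI50 = concentration required for 50% inhibition of growth.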 The source made the active and inactive calls. Cut-off read from the data, not from the text of the source: active = GI50 up to about 1.1 µM and inactive = higher.

Among the test systems are ACHN; BT-549; CCRF-CEM; HCT-15; IGROV-1; M14; MDA-MB-231; MDA-MB-435; MOLT-4; NCI-H226; NCI-H23; NCI-H522; OVCAR-4; OVCAR-5; SK-MEL-28; SK-OV-3; SNB-19; T47D; TK-10; UACC-257.
What all share (assay): inhibition of tumour cell growth, NCI panel, 48 h

`Cc1ccc(S(=O)(=O)N(CC(O)COc2ccccc2)c2ccccc2Cl)cc1` (stereo not drawn): the GI50 with ACHN was 16.3 µM (inactive); in the assay with BT-549 it was 17.1 µM (inactive); in the assay on CCRF-CEM, 13.9 µM (inactive); in the assay with HCT-15, 15.8 µM; with IGROV-1, 12.5 µM (inactive); with M14, 16.5 µM (inactive). For the same compound, the GI50 with MDA-MB-231 is 14.6 µM (inactive); in the assay with MDA-MB-435 it was 15.6 µM (inactive); in the assay with MOLT-4 it was 19.8 µM (inactive); with NCI-H226 it was 14.9 µM (inactive); with NCI-H23, 14.7 µM (inactive); in the assay on NCI-H522 it was 12.4 µM (inactive). Besides, the GI50 in the assay on OVCAR-4 was 12.4 µM (inactive); with OVCAR-5, 23.3 µM (inactive); in the assay on SK-MEL-28 it was 15.6 µM (inactive); in the assay on SK-OV-3, 23.8 µM (inactive); in the assay on SNB-19, 18.2 µM (inactive); in the assay on T47D it was 24.9 µM (inactive). The GI50 in the assay with TK-10 was 14.2 µM (inactive); in the assay with UACC-257, 14.7 µM (inactive).

Turning to `CCn1cc(C(=O)O)c(=O)c2cc(F)c(N3CCN(CN4C(=O)/C(=N\c5ncc(Cc6cc(OC)c(OC)c(OC)c6)c(N)n5)c5cc(Cl)ccc54)CC3)cc21`, the GI50 in the assay with ACHN was > 100 µM (inactive); in the assay on BT-549, > 100 µM (inactive); in the assay with CCRF-CEM it was 91 µM (inactive); with HCT-15, 91.6 µM; in the assay with IGROV-1 it was 8.24 µM (inactive); in the assay on M14, > 100 µM (inactive). The GI50 with MDA-MB-231 was > 100 µM (inactive); with MDA-MB-435 it was 33.3 µM (inactive); in the assay on MOLT-4 it was 0.38 µM (active); with NCI-H226, > 100 µM (inactive); in the assay on NCI-H23, > 100 µM (inactive); in the assay with NCI-H522, > 100 µM (inactive). The GI50 in the assay with OVCAR-4, in the assay with OVCAR-5, with SK-MEL-28, in the assay with SK-OV-3, with SNB-19 and with T47D was > 100 µM (inactive) each time. Besides, the results for the GI50 in the assay with TK-10 and in the assay with UACC-257 were 83 µM (inactive) and > 100 µM (inactive), respectively.

Take `CCCCCCCCCCCCCCCC[N+](C)(C)Cc1ccc(F)cc1`: the GI50 was 3.07 µM (inactive) in the assay on ACHN; 2.37 µM (inactive) in the assay on BT-549; 0.771 µM (active) in the assay with CCRF-CEM; 8.43 µM in the assay with HCT-15; 0.383 µM (active) with IGROV-1; 1.6 µM (inactive) in the assay on M14. Further, the GI50 in the assay with MDA-MB-231 was 1.32 µM (inactive); in the assay with MDA-MB-435 it was 1.84 µM (inactive); in the assay with MOLT-4 it was 1.46 µM (inactive); in the assay on NCI-H226, 2.15 µM (inactive); in the assay with NCI-H23, 2.16 µM (inactive); with NCI-H522, 0.724 µM (active). Besides, the GI50 in the assay with OVCAR-4 is 1.55 µM (inactive); in the assay on OVCAR-5, 1.83 µM (inactive); with SK-MEL-28, 3.08 µM (inactive); with SK-OV-3 it was 2.2 µM (inactive); in the assay with SNB-19, 1.66 µM (inactive); in the assay on T47D, 3.33 µM (inactive). For the same compound, the figures for the GI50 in the assay on TK-10 and in the assay on UACC-257 were 1.48 µM (inactive) and 1.79 µM (inactive), respectively.

`CN1CCCC(OC(=O)c2cc3cc(CCl)ccc3oc2=O)C1` (stereo not drawn): the GI50 was 23.3 µM (inactive) with ACHN; 21 µM (inactive) with BT-549; 19.1 µM (inactive) in the assay on CCRF-CEM; 19.2 µM with HCT-15; 28.6 µM (inactive) with IGROV-1; 14.8 µM (inactive) in the assay with M14. The GI50 in the assay on MDA-MB-231 is 21 µM (inactive); with MDA-MB-435 it was 18.9 µM (inactive); in the assay with MOLT-4 it was 29.6 µM (inactive); in the assay on NCI-H226, 23.9 µM (inactive); in the assay on NCI-H23, 19.3 µM (inactive); in the assay on NCI-H522, 15.9 µM (inactive). The GI50 in the assay with OVCAR-4 is 20.3 µM (inactive); with OVCAR-5, 21.6 µM (inactive); with SK-MEL-28 it was 19.5 µM (inactive); in the assay with SK-OV-3, 35.2 µM (inactive); with SNB-19 it was 27.7 µM (inactive); with T47D it was 32.7 µM (inactive). Further, the GI50 with TK-10 is 18.9 µM (inactive); in the assay on UACC-257, 18.1 µM (inactive).

With `O=C1C=CC(=O)c2c(O)c(N(CCCl)CCCl)c(Cl)c(O)c21`, the GI50 with ACHN was 4.13 µM (inactive); with BT-549 it was 4.15 µM (inactive); in the assay on CCRF-CEM, 1.25 µM (inactive); in the assay on HCT-15, 5.45 µM; in the assay with IGROV-1 it was > 6.68 µM (inactive); with M14, 4.37 µM (inactive). Also, the GI50 was 4.56 µM (inactive) in the assay on MDA-MB-231; 4.31 µM (inactive) in the assay on MDA-MB-435; > 5.31 µM (inactive) in the assay with MOLT-4; > 9.66 µM (inactive) in the assay with NCI-H226; 5.07 µM (inactive) with NCI-H23; 3.74 µM (inactive) with NCI-H522. In addition, the GI50 was 4.49 µM (inactive) with OVCAR-4; > 7.21 µM (inactive) in the assay on OVCAR-5; > 5.6 µM (inactive) in the assay on SK-MEL-28; > 10 µM (inactive) in the assay on SK-OV-3; > 10 µM (inactive) with SNB-19; 4.71 µM (inactive) with T47D. Also, the GI50 with TK-10 was 3.35 µM (inactive); in the assay with UACC-257, 3.3 µM (inactive).

With `CCOC(=O)/C=C\[C@H]1OC(C)(C)O[C@H]1[C@H](O)[C@H]1COC(C)(C)O1`, the GI50 in the assay with ACHN is 16.3 µM (inactive); in the assay on BT-549 it was 22 µM (inactive); with CCRF-CEM it was 10.5 µM (inactive); with HCT-15, 17 µM; in the assay on IGROV-1 it was 19.5 µM (inactive); in the assay on M14, 17.8 µM (inactive). Also, the GI50 with MDA-MB-231 was 17.6 µM (inactive); in the assay with MDA-MB-435 it was 17.3 µM (inactive); with MOLT-4 it was 19.2 µM (inactive); with NCI-H226, > 100 µM (inactive); in the assay with NCI-H23, 21.7 µM (inactive); in the assay on NCI-H522, 13.8 µM (inactive). The GI50 in the assay with OVCAR-4 is 19.3 µM (inactive); with OVCAR-5, 17.1 µM (inactive); with SK-MEL-28, 17.7 µM (inactive); in the assay on SK-OV-3 it was > 100 µM (inactive); in the assay with SNB-19, > 100 µM (inactive); in the assay with T47D, 20.5 µM (inactive). Moreover, the GI50 was 16.1 µM (inactive) with TK-10 and 22.6 µM (inactive) with UACC-257.

Take `CC(=O)NC(CCCCN(Cc1ccccc1)C(=O)N(CCCl)N=O)C(=O)NCc1ccccc1` (stereo not drawn): the GI50 with ACHN is 14.3 µM (inactive); in the assay with BT-549 it was 21.3 µM (inactive); in the assay on CCRF-CEM, 17.8 µM (inactive); with HCT-15, over 60.8 µM; in the assay with IGROV-1, 39.7 µM (inactive); in the assay on M14, 41.7 µM (inactive). Moreover, the GI50 in the assay with MDA-MB-231 was 21.9 µM (inactive); in the assay on MDA-MB-435, 35.1 µM (inactive); with MOLT-4, 14.3 µM (inactive); in the assay with NCI-H226 it was 43.1 µM (inactive); in the assay with NCI-H23, 27.7 µM (inactive); with NCI-H522, 39 µM (inactive). The GI50 was 68.1 µM (inactive) with OVCAR-4; > 67.6 µM (inactive) in the assay with OVCAR-5; 45.7 µM (inactive) with SK-MEL-28; > 54.3 µM (inactive) with SK-OV-3; 16.7 µM (inactive) in the assay on SNB-19; 14.5 µM (inactive) with T47D. Also, the GI50 was 44.8 µM (inactive) in the assay on TK-10 and 24.3 µM (inactive) with UACC-257.

For `COc1cccc2c1-c1ccccc1[C@H](Nc1ccccc1)[C@@]2(C)O`, the GI50 in the assay on ACHN was 9.57 µM (inactive); in the assay on BT-549 it was 8.41 µM (inactive); in the assay with CCRF-CEM, 1.42 µM (inactive); in the assay on HCT-15, 4.3 µM; in the assay on M14, 3.86 µM (inactive); with MDA-MB-231 it was 10.3 µM (inactive). The GI50 in the assay with MDA-MB-435 is 1.56 µM (inactive); with MOLT-4, 7.28 µM (inactive); with NCI-H226, 3.4 µM (inactive); in the assay on NCI-H23 it was 7.67 µM (inactive); in the assay with NCI-H522, 2.37 µM (inactive); in the assay on OVCAR-4, 10.3 µM (inactive). For the same compound, the GI50 in the assay on OVCAR-5 is 11.6 µM (inactive); with SK-MEL-28, 11.3 µM (inactive); in the assay on SK-OV-3, 4.27 µM (inactive); with SNB-19 it was 5.81 µM (inactive); in the assay with T47D, 8.85 µM (inactive); in the assay on TK-10 it was 8.87 µM (inactive). The GI50 in the assay with UACC-257 was 6.11 µM (inactive).

Regarding `NC(Cc1cccnn1)C(=O)O` (stereo not drawn), the GI50 with ACHN is > 100 µM (inactive); in the assay on BT-549 it was > 100 µM (inactive); in the assay with CCRF-CEM, > 100 µM (inactive); in the assay on HCT-15, over 100 µM; with IGROV-1, > 100 µM (inactive); with M14 it was > 100 µM (inactive). The GI50 in the assay with MDA-MB-231, in the assay on MDA-MB-435, in the assay on MOLT-4, with NCI-H226, with NCI-H23 and with NCI-H522 was > 100 µM (inactive) in each case. Besides, the GI50 in the assay on OVCAR-4, in the assay with OVCAR-5, with SK-MEL-28, with SK-OV-3, in the assay with SNB-19 and in the assay on T47D was > 100 µM (inactive) in each case. In addition, the GI50 with TK-10 and in the assay on UACC-257 was > 100 µM (inactive) throughout.

As for `Cn1c(=O)c2c(no[n+]2[O-])n(C)c1=O`, the GI50 is > 100 µM (inactive) in the assay on ACHN; 21.7 µM (inactive) with BT-549; > 100 µM (inactive) with CCRF-CEM; over 100 µM in the assay with HCT-15; 22.2 µM (inactive) in the assay with IGROV-1; > 100 µM (inactive) in the assay with M14. Moreover, the GI50 in the assay on MDA-MB-231 is 21.7 µM (inactive); in the assay on MDA-MB-435, 20 µM (inactive); in the assay on MOLT-4, > 100 µM (inactive); with NCI-H226 it was 18.2 µM (inactive); in the assay with NCI-H23, 22.4 µM (inactive); in the assay with NCI-H522, 16.1 µM (inactive). Also, the GI50 is 59.8 µM (inactive) with OVCAR-4; > 100 µM (inactive) with OVCAR-5; 53.5 µM (inactive) in the assay with SK-OV-3; 22.3 µM (inactive) in the assay with SNB-19; > 100 µM (inactive) with T47D; 18.9 µM (inactive) in the assay with TK-10. Further, the GI50 in the assay with UACC-257 is 36.9 µM (inactive).
